Test results from ChEMBL document CHEMBL1125630, “Positional effects of sulfation in hirudin and hirudin PA related anticoagulant peptides” (J Med Chem, 1991).

Assay: In vitro inhibition fibrin clot formation after addition of thrombin.
Format: functional, Homo sapiens

IC50 | Compound
0.38 µM | CC[C@H](C)[C@H](NC(=O)[C@@H]1CCCN1C(=O)C(CCC(=O)O)NC(=O)[C@H](Cc1ccc(O)cc1)NC(=O)CCC(=O)O)C(=O)N1CCC[C@H]1C(=O)NC(CCC(=O)O)C(=O)NC(CCC(=O)O)C(=O)N[C@@H](Cc1ccc(N)cc1)C(=O)N[C@@H](CC(C)C)C(=O)NC(CCC(=O)O)C(=O)O (stereo in doubt)
1.6 µM | CC[C@H](C)[C@H](NC(=O)[C@@H]1CCCN1C(=O)C(CCC(=O)O)NC(=O)[C@H](Cc1ccccc1)NC(=O)CCC(=O)O)C(=O)N1CCC[C@H]1C(=O)NC(CCC(=O)O)C(=O)NC(CCC(=O)O)C(=O)N[C@@H](Cc1ccc(O)cc1)C(=O)N[C@@H](CC(C)C)C(=O)NC(CCC(=O)O)C(=O)O (stereo in doubt)
2.7 µM | H-GDFEPIPEDAYDE-OH
0.12 µM | CC[C@H](C)[C@H](NC(=O)[C@@H]1CCCN1C(=O)C(CCC(=O)O)NC(=O)[C@H](Cc1ccc(O)cc1)NC(=O)CCC(=O)O)C(=O)N1CCC[C@H]1C(=O)NC(CCC(=O)O)C(=O)NC(CCC(=O)O)C(=O)N[C@@H](Cc1ccc(NS(=O)(=O)O)cc1)C(=O)N[C@@H](CC(C)C)C(=O)NC(CCC(=O)O)C(=O)O (stereo in doubt)
0.087 µM | CC[C@H](C)[C@H](NC(=O)[C@@H]1CCCN1C(=O)C(CCC(=O)O)NC(=O)[C@H](Cc1ccccc1)NC(=O)CCC(=O)O)C(=O)N1CCC[C@H]1C(=O)NC(CCC(=O)O)C(=O)NC(CCC(=O)O)C(=O)N[C@@H](Cc1ccc(OS(=O)(=O)O)cc1)C(=O)N[C@@H](CC(C)C)C(=O)NC(CCC(=O)O)C(=O)O (stereo in doubt)
2.5 µM | CC[C@H](C)[C@H](NC(=O)[C@@H]1CCCN1C(=O)C(CCC(=O)O)NC(=O)[C@H](Cc1ccc(O)cc1)NC(=O)CCC(=O)O)C(=O)N1CCC[C@H]1C(=O)NC(CCC(=O)O)C(=O)NC(CCC(=O)O)C(=O)N[C@@H](C)C(=O)N[C@@H](Cc1ccc(NS(=O)(=O)O)cc1)C(=O)NC(CCC(=O)O)C(=O)O (stereo in doubt)
2.8 µM | CC[C@H](C)[C@H](NC(=O)[C@@H]1CCCN1C(=O)C(CCC(=O)O)NC(=O)[C@H](Cc1ccc(O)cc1)NC(=O)CCC(=O)O)C(=O)N1CCC[C@H]1C(=O)NC(CCC(=O)O)C(=O)NC(CCC(=O)O)C(=O)N[C@@H](Cc1ccc([N+](=O)[O-])cc1)C(=O)N[C@@H](CC(C)C)C(=O)NC(CCC(=O)O)C(=O)O (stereo in doubt)
0.71 µM | CC[C@H](C)[C@H](NC(=O)[C@@H]1CCCN1C(=O)C(CCC(=O)O)NC(=O)[C@H](Cc1ccc(O)cc1)NC(=O)CCC(=O)O)C(=O)N1CCC[C@H]1C(=O)NC(CCC(=O)O)C(=O)NC(CCC(=O)O)C(=O)N[C@@H](C)C(=O)N[C@@H](Cc1ccc([N+](=O)[O-])cc1)C(=O)NC(CCC(=O)O)C(=O)O (stereo in doubt)
0.3 µM | CC[C@H](C)[C@H](NC(=O)[C@@H]1CCCN1C(=O)C(CCC(=O)O)NC(=O)[C@H](Cc1ccccc1)NC(=O)CCC(=O)O)C(=O)N1CCC[C@H]1C(=O)NC(CCC(=O)O)C(=O)NC(CCC(=O)O)C(=O)N[C@@H](C)C(=O)N[C@@H](Cc1ccc(OS(=O)(=O)O)cc1)C(=O)NC(CCC(=O)O)C(=O)O (stereo in doubt)
2.9 µM | CC[C@H](C)[C@H](NC(=O)[C@@H]1CCCN1C(=O)C(CCC(=O)O)NC(=O)[C@H](Cc1ccc(O)cc1)NC(=O)CCC(=O)O)C(=O)N1CCC[C@H]1C(=O)NC(CCC(=O)O)C(=O)NC(CCC(=O)O)C(=O)N[C@@H](C)C(=O)N[C@@H](Cc1ccc(N)cc1)C(=O)NC(CCC(=O)O)C(=O)O (stereo in doubt)
1.2 µM | CC[C@H](C)[C@H](NC(=O)[C@@H]1CCCN1C(=O)C(CCC(=O)O)NC(=O)[C@H](Cc1ccccc1)NC(=O)CCC(=O)O)C(=O)N1CCC[C@H]1C(=O)NC(CCC(=O)O)C(=O)NC(CCC(=O)O)C(=O)N[C@@H](C)C(=O)N[C@@H](Cc1ccc(O)cc1)C(=O)NC(CCC(=O)O)C(=O)O (stereo in doubt)
